# Assay results as given in patent US7138504B2, “Reagents and methods for mycophenolic acid immunoassay” (Microgenics Corporation, priority 2004, dated 2006).
# Assays:
# [1] = test system: antibody raised against MPAlc; assay: CEDIA MPA assay specificity (cross-reactivity) in MPA-free plasma; format: binding, goats
# Experimental: “Cross reactivity” is determined in a quantitative immunoassay by establishing a standard curve using known dilutions of MPA. The standard curve is then used to calculate the apparent concentration of the interfering substance present in various known amounts in samples assayed under substantially similar conditions. The percent (%) cross-reactivity is the measured concentration divided by the tested concentration multiplied by 100%. […] If MPA is present in the sample, it binds to the antibody, leaving the ED portion of the ED-containing conjugate free to restore enzyme activity upon association with enzyme acceptor (EA) fragments in the assay reaction mixture. The active enzyme is then capable of producing a quantifiable reaction product when exposed to appropriate substrate. If MPA is not present in the sample, the antibody binds to the ED-containing conjugate inhibiting association of the ED fragments with the EA fragments, thus inhibiting restoration of enzyme activity. The amount of reaction product and resultant absorbance change are proportional to the amount of MPA in the specimen. […] (active metabolite), were added to MPA-free plasma for measuring cross-reactivity. The estimated cross-reactivity of each compound was calculated using the formula: (measured concentration-control concentration)×100% concentration tested Additionally, commonly co-prescribed and over-the-counter (OTC) drugs were tested in MPA-free plasma for cross-reactivity in the […] assay.
# [2] = test system: inosine-monophosphate dehydrogenase (IMPDH); details: cited from earlier work
smiles,measurement,setting,value
COc1c(C)c2c(c(O[C@@H]3O[C@H](C(=O)O)[C@@H](O)[C@H](O)[C@H]3O)c1C/C=C(\C)CCC(=O)O)C(=O)OC2 [7-O-Glucuronide MPA],% Cross-Reactivity,[1]; concentration 1000 μg/ml,0.0%
COc1c(C)c2c(c(O)c1C/C=C(\C)CCC(=O)O[C@@H]1O[C@H](C(=O)O)[C@@H](O)[C@H](O)[C@H]1O)C(=O)OC2 [Acyl glucuronide MPA],inhibition of IMPDH,[2],activity similar to that of MPA
same,% Cross-Reactivity,[1]; concentration 10 μg/ml,192%
"COc1c(C)c2c(c(O)c1C/C=C(\C)CCC(=O)O)C(=O)OC2 [MPA, Mycophenolic acid]",inhibition of IMPDH,[2],potent and specific inhibitor
"COc1c(C)c2c(c(O)c1C/C=C(\C)CCC(=O)OCCN1CCOCC1)C(=O)OC2 [Mycophenolate mofetil, 2-morpholinoethyl(E)-6-(1,3-dihydro-4-hydroxy-6-methoxy-7-methyl-3-oxo-5-isobenzofuranyl)-4-methyl-4-hexenoate]",% Cross-Reactivity,[1]; concentration 926 μg/ml,123%
